Reference: patent publication US20130090280A1, “CLEANING COMPOSITIONS AND METHODS” (HONEYWELL INTERNATIONAL INC., priority 2011, published 2013)
Where two headings read alike, the source gives them in different places.

What was measured:
[1] = selected physical properties of solvents
From the text: In the table Perc, is used as an abbreviation for perchloroethylene.

[2] = miscibility test, equal parts by weight of solvent and oils, visual observation; assay type: physicochemical
From the text: Applicants compared the solubility of various materials which may be considered as soils to be cleaned in 1233zd(E) in Table 3. […] In all cases, the solvent looked clear and the mixtures are reported as miscible below. This is an initial mode of testing to check how well the solvent performs in dissolving the soils.

[3] = chemical stability, reflux with metals and moisture, ion chromatography of aqueous wash; assay type: physicochemical
From the text: The chemical stability of the compound 1233zd(E) by itself and also in the presence of water, metals, flux is another important factor to be considered in the identification of a successful solvent. […] This test continued for 2 weeks.
Solvent was boiled with water alone or in presence of various metal coupons such as stainless steel 304, cold-rolled steel, galvanized steel, copper, and aluminum. The coupons were partially immersed in the solvent which allowed the state of the coupons at the interface of liquid and vapor to be viewed. […] After the test, coupons were observed visually for rusting or pitting and the remaining solvent in the flask was examined for breakdown products including chlorides and fluorides which are good indicators of breakdown of solvents.

[4] = 0.2% moisture added, reflux 100 hours, AL
[5] = 0.2% moisture added, reflux 100 hours, CRS
[6] = 0.2% moisture added, reflux 100 hours, CU
[7] = 0.2% moisture added, reflux 100 hours, GAL
[8] = 0.2% moisture added, reflux 100 hours, S.S 304
[9] = 0.2% moisture added, reflux 100 hours, no metal
[10] = no additional moisture, reflux, AL
[11] = no additional moisture, reflux, CRS
[12] = no additional moisture, reflux, CU
[13] = no additional moisture, reflux, GAL
[14] = no additional moisture, reflux, S.S 304
[15] = no additional moisture, reflux, no metal
[16] = no additional moisture, virgin/no reflux

Molecule: dichloropentafluoropropane [HCFC-225]
- Boiling Point [1]: 54 °C
- Flash Point [1]: None
- Vapor Pressure ([1]; @20 C.): 5.6 psi
- Heat of Vaporization ([1]; @25° C.): 145@25 °C kJ/kg

Molecule: FC(C(F)C(F)(F)C(F)(F)F)C(F)(F)F (stereo not drawn) [HFC 43-10mee]
- Boiling Point [1]: 54 °C
- Flash Point [1]: None
- Vapor Pressure [1]: 4.4 psi
- Heat of Vaporization ([1]; at bp): 129.7 kJ/kg

Molecule: O [water]
- surface tension [1]: 72.1 dynes/cm

Molecule: CCCBr [n-Propyl Bromide, n-propyl bromide, reference compound]
- Boiling Point [1]: 71 °C
- Flash Point [1]: None
- Vapor Pressure ([1]; @20 C.): 2.1 psi
- Heat of Vaporization ([1]; at bp): 246 kJ/kg
- Soil Dissolution in solvent ([2]; Mineral Oil): Miscible
- Soil Dissolution in solvent ([2]; Refrigerant oil): Miscible
- Soil Dissolution in solvent ([2]; Silicone Lubricant): Miscible
- Soil Dissolution in solvent ([2]; Solder Flux): Miscible

Molecule: ClC(Cl)=C(Cl)Cl [Perc, perchloroethylene]
- Boiling Point [1]: 121.3 °C
- Flash Point [1]: None
- Vapor Pressure ([1]; @20 C.): 0.27 psi
- Heat of Vaporization ([1]; at bp): 207 kJ/kg

Molecule: FC(F)(Cl)C(F)(Cl)Cl [CFC-113, 1,1,2-trichlorotrifluoroethane]
- Boiling Point [1]: 47.6 °C
- Flash Point [1]: None
- Kauri-Butanol value [1]: 32
- Vapor Pressure [1]: 5.27 psi
- Heat of Vaporization ([1]; at bp): 144.7 kJ/kg

Molecule: FC(F)(F)/C=C/Cl [1233zd(E), trans-1-chloro-3,3,3-trifluoropropene]
- Acetate [3, 4]: 0.04 ppm
- Br^− [3, 4]: <0.05 ppm
- Cl^− [3, 4]: 0.08 ppm
- F^− [3, 4]: 0.05 ppm
- Formate [3, 4]: 0.10 ppm
- NO3^− [3, 4]: <0.05 ppm
- PO4^−3 [3, 4]: <0.10 ppm
- SO4^−2 [3, 4]: 0.18 ppm
- Acetate [3, 5]: 0.07 ppm
- Br^− [3, 5]: <0.05 ppm
- Cl^− [3, 5]: 0.07 ppm
- F^− [3, 5]: 0.05 ppm
- Formate [3, 5]: 0.14 ppm
- NO3^− [3, 5]: 0.10 ppm
- PO4^−3 [3, 5]: <0.10 ppm
- SO4^−2 [3, 5]: 0.26 ppm
- Acetate [3, 6]: 0.09 ppm
- Br^− [3, 6]: <0.05 ppm
- Cl^− [3, 6]: 0.08 ppm
- F^− [3, 6]: 0.06 ppm
- Formate [3, 6]: 0.16 ppm
- NO3^− [3, 6]: 0.15 ppm
- PO4^−3 [3, 6]: <0.10 ppm
- SO4^−2 [3, 6]: 0.31 ppm
- Acetate [3, 7]: 0.04 ppm
- Br^− [3, 7]: <0.05 ppm
- Cl^− [3, 7]: 0.07 ppm
- F^− [3, 7]: 0.05 ppm
- Formate [3, 7]: 0.08 ppm
- NO3^− [3, 7]: <0.05 ppm
- PO4^−3 [3, 7]: <0.10 ppm
- SO4^−2 [3, 7]: 0.19 ppm
- Acetate [3, 8]: 0.04 ppm
- Br^− [3, 8]: <0.05 ppm
- Cl^− [3, 8]: 0.07 ppm
- F^− [3, 8]: 0.06 ppm
- Formate [3, 8]: 0.08 ppm
- NO3^− [3, 8]: <0.05 ppm
- PO4^−3 [3, 8]: <0.10 ppm
- SO4^−2 [3, 8]: 0.18 ppm
- Acetate [3, 9]: 0.08 ppm
- Br^− [3, 9]: <0.05 ppm
- Cl^− [3, 9]: 0.08 ppm
- F^− [3, 9]: 0.05 ppm
- Formate [3, 9]: 0.12 ppm
- NO3^− [3, 9]: <0.05 ppm
- PO4^−3 [3, 9]: <0.10 ppm
- SO4^−2 [3, 9]: 0.23 ppm
- Acetate [3, 10]: 0.12 ppm
- Br^− [3, 10]: <0.05 ppm
- Cl^− [3, 10]: 0.14 ppm
- F^− [3, 10]: 0.09 ppm
- Formate [3, 10]: 0.26 ppm
- NO3^− [3, 10]: 0.19 ppm
- PO4^−3 [3, 10]: <0.10 ppm
- SO4^−2 [3, 10]: 0.45 ppm
- Acetate [3, 11]: 0.08 ppm
- Br^− [3, 11]: <0.05 ppm
- Cl^− [3, 11]: 0.12 ppm
- F^− [3, 11]: 0.08 ppm
- Formate [3, 11]: 0.17 ppm
- NO3^− [3, 11]: 0.06 ppm
- PO4^−3 [3, 11]: <0.10 ppm
- SO4^−2 [3, 11]: 0.17 ppm
- Acetate [3, 12]: 0.12 ppm
- Br^− [3, 12]: <0.05 ppm
- Cl^− [3, 12]: 0.9 ppm
- F^− [3, 12]: 0.09 ppm
- Formate [3, 12]: 0.10 ppm
- NO3^− [3, 12]: 0.12 ppm
- PO4^−3 [3, 12]: <0.10 ppm
- SO4^−2 [3, 12]: 0.41 ppm
- Acetate [3, 13]: 0.12 ppm
- Br^− [3, 13]: <0.05 ppm
- Cl^− [3, 13]: 0.12 ppm
- F^− [3, 13]: 0.08 ppm
- Formate [3, 13]: 0.22 ppm
- NO3^− [3, 13]: 0.14 ppm
- PO4^−3 [3, 13]: <0.10 ppm
- SO4^−2 [3, 13]: 0.30 ppm
- Acetate [3, 14]: 0.10 ppm
- Br^− [3, 14]: <0.05 ppm
- Cl^− [3, 14]: 0.11 ppm
- F^− [3, 14]: 0.08 ppm
- Formate [3, 14]: 0.12 ppm
- NO3^− [3, 14]: 0.06 ppm
- PO4^−3 [3, 14]: <0.10 ppm
- SO4^−2 [3, 14]: 0.18 ppm
- Acetate [3, 15]: 0.13 ppm
- Br^− [3, 15]: <0.05 ppm
- Cl^− [3, 15]: 0.16 ppm
- F^− [3, 15]: 0.09 ppm
- Formate [3, 15]: 0.19 ppm
- NO3^− [3, 15]: 0.12 ppm
- PO4^−3 [3, 15]: <0.10 ppm
- SO4^−2 [3, 15]: 0.29 ppm
- Acetate [3, 16]: 0.13 ppm
- Br^− [3, 16]: <0.05 ppm
- Cl^− [3, 16]: 0.11 ppm
- F^− [3, 16]: 0.08 ppm
- Formate [3, 16]: 0.35 ppm
- NO3^− [3, 16]: 0.06 ppm
- PO4^−3 [3, 16]: <0.10 ppm
- SO4^−2 [3, 16]: 0.21 ppm
- breakdown products in solvent after reflux ([3]; reflux with individual metals and added moisture (0.20% H2O), 100 hours): no increase of chlorides and fluorides in the solvent over the baseline and no other degradation products
- Boiling Point [1]: 19.52 °C
- Flash Point [1]: None
- Kauri-Butanol value [1]: 25
- flammability [1]: completely non-flammable
- Vapor Pressure ([1]; @20 C.): 15.23 psi
- Heat of Vaporization ([1]; at bp): 193.9 kJ/kg
- Soil Dissolution in solvent ([2]; Mineral Oil): Miscible
- Soil Dissolution in solvent ([2]; Refrigerant oil): Miscible
- Soil Dissolution in solvent ([2]; Silicone Lubricant): Miscible
- Soil Dissolution in solvent ([2]; Solder Flux): Miscible
